What all share (format): cell-based, human
The test system of experiment [1] is resistant K562/ADR cells. Kind of experiment: Cytotoxicity, MTT test, resistant line. Particulars: for F. Rev (reversion factor): K562/ADR, effect of the vector on susceptibility, free doxo versus compound; for F. Res (resistance factor): ratio of IC50 values, resistant line K562/ADR versus susceptible K562. As for the experimental part:
(§1) The susceptible K562 chronic myeloid leukaemia cells, resistant K562/ADR cells and HL60/R10 promyeloid leukaemia cells are of human origin and were obtained commercially from the ATCC. The cells are inoculated at a rate of approximately 10^4 cells per well, 24 hours before adding the products. The cells are kept in culture at 37° C. in an atmosphere at 95% humidity and 5% CO2 in an OptiMem medium.
[…] At the end of the culture period, MTT (3-(4,5-dimethylthiazole-2-yl)-2,5-diphenyltetrazolium bromide) is added into the wells and the culture plates are then incubated for 4 hours in the incubator. The resulting crystalline formazan deposit is then dissolved by adding 200 μl of DMF/SDS. The optical density (OD) is measured at 550 nm (reference 630 nm) using a microplate reader.
(§2) The graphic representation of the OD percentages of the wells treated as a function of the concentration of products is used to determine the IC50 which corresponds to the concentration of product that inhibits 50% of growth.
The IC50 values are used to quantify the resistance factor (F. Res) of the resistant lines using the following ratio:
The reversion factor (F. Rev) corresponds to the effect of a modulator (the vector) on the susceptibility of the cells to the anti-tumour agents according to the following ratio:
The susceptibility of the cells to anti-tumour agents was measured using the MTT test under the experimental conditions defined above wherein the relationship between the optical density and the number of viable cells is linear.

The subject of experiment [2] is HL60/R10 promyeloid leukaemia cells. Kind of experiment: Cytotoxicity, MTT test, HL60/R10. As to the method:
as §1
The susceptible K562 cells and resistant K562/ADR cells are incubated either with free doxorubicin or with doxorubicin in a vector at increasing concentrations after 48 hours in culture in the presence of the products. At the end of the culture period, MTT (3-(4,5-dimethylthiazole-2-yl)-2,5-diphenyltetrazolium bromide) is added into the wells and the culture plates are then incubated for 4 hours in the incubator. The resulting crystalline formazan deposit is then dissolved by adding 200 μl of DMF/SDS. The optical density (OD) is measured at 550 nm (reference 630 nm) using a microplate reader.
as §2
The reversion factor (F. Rev) corresponds to the effect of a modulator (the vector) on the susceptibility of the cells to the anti-tumour agents according to the following ratio: […]

For experiment [3], the system named is resistant K562/ADR cells. Kind of experiment: Internalisation by flow cytometry. The note with it: 3 μM, 30 min incubation at 37° C. As to the method:
as §1
The susceptible K562 cells and resistant K562/ADR cells are incubated either with free doxorubicin or with doxorubicin in a vector at a concentration of 3 μM. After 30 minutes of incubation at 37° C., the cells are washed three times with PBS. The internalisation of the products is then analysed by flow cytometry. The samples are analysed with a flow cytometer equipped with a 15 mA argon laser. The fluorescence emitted is recorded on a logarithmic scale at (575 NM) nm after an excitation at (488) nm. The fluorescence is measured on 10,000 cells selected according to the […] parameters. The results are expressed as a percentage of positive cells of the fluorescence intensity logarithm. The results are analysed using the software program Cell Quest.
The susceptible K562 cells and resistant K562/ADR cells are incubated either with free doxorubicin or with doxorubicin in the vector. After 30 min of incubation, the internalisation of the products is measured by flow cytometry.

In experiment [4] the test system is susceptible K562 chronic myeloid leukaemia cells. The experiment is described as follows: Cytotoxicity, MTT test, susceptible line. Particulars: 8 μM, 24 hours incubation.

Where “and” joins values, the source holds several entries; their conditions need not be identical. Identical values can stand only once. Like-named read-outs stand apart in the source and are kept apart here. Numbered stars: 1 amine (or outer) side, 2 acyl side, 3 side chain; on linkers, the order of the positions; unused ones are H or OH. Peptide text beside a SMILES is read from it. * marks the point of attachment. X1 = COc1cccc2c1C(=O)c1c(O)c3c(c(O)c1C2=O)C[C@@](O)(C(=O)CO)C[C@@H]3O[C@H]1C[C@H](NC(=O)CCN2C(=O)CC(*)C2=O)[C@H](O)[C@H](C)O1; Doxorubicin(3'-N) = COc1cccc2c1C(=O)c1c(O)c3c(c(O)c1C2=O)C[C@@](O)(C(=O)CO)C[C@@H]3O[C@H]1C[C@H](N*)[C@H](O)[C@H](C)O1; Suc = O=C(CCC(=O)[*:2])[*:1]

Regarding `COc1cccc2c1C(=O)c1c(O)c3c(c(O)c1C2=O)C[C@@](O)(C(=O)CO)C[C@@H]3O[C@H]1C[C@H](NC(=O)CCC(=O)N[C@@H](CCCNC(=N)N)C(=O)NCC(=O)NCC(=O)N[C@@H](CCCNC(=N)N)C(=O)N[C@@H](CC(C)C)C(=O)N[C@@H](CO)C(=O)N[C@@H](Cc2ccc(O)cc2)C(=O)N[C@@H](CO)C(=O)N[C@@H](CCCNC(=N)N)C(=O)N[C@@H](CCCNC(=N)N)C(=O)N[C@@H](CCCNC(=N)N)C(=O)N[C@@H](Cc2ccccc2)C(=O)N[C@@H](CO)C(=O)N[C@H](C(=O)N[C@@H](CO)C(=O)N[C@H](C(=O)NCC(=O)N[C@@H](CCCNC(=N)N)C(=O)O)[C@@H](C)O)[C@@H](C)O)[C@H](O)[C@H](C)O1` [Compound 1, doxo-CO-(CH2)2-CO-RGGRLSYSRRRFSTSTGR] ({Doxorubicin(3'-N)-Suc}-RGGRLSYSRRRFSTSTGR-OH; N-terminus and C-terminus assumed), in the experiment with resistant K562/ADR cells [1], the “F. Rev (reversion factor)” value is 2.5 and the “F. Res (resistance factor)” value is 0.7.
As to `COc1cccc2c1C(=O)c1c(O)c3c(c(O)c1C2=O)C[C@@](O)(C(=O)CO)C[C@@H]3O[C@H]1C[C@H](NC(=O)CCC(=O)N[C@@H](CCCNC(=N)N)C(=O)NCC(=O)NCC(=O)N[C@@H](CCCNC(=N)N)C(=O)N[C@@H](CC(C)C)C(=O)N[C@@H](CO)C(=O)N[C@@H](Cc2ccc(O)cc2)C(=O)N[C@@H](CO)C(=O)N[C@@H](CCCNC(=N)N)C(=O)N[C@@H](CCCNC(=N)N)C(=O)N[C@@H](CCCNC(=N)N)C(=O)N[C@@H](Cc2ccccc2)C(=O)N[C@@H](CO)C(=O)N[C@H](C(=O)N[C@@H](CO)C(=O)N[C@H](C(=O)NCC(=O)N[C@@H](CCCNC(=N)N)C(=O)O)C(C)C)C(C)C)[C@H](O)[C@H](C)O1` [Compound 2, doxo-CO-(CH2)2-CO-RGGRLSYSRRRFSVSVGR] ({Doxorubicin(3'-N)-Suc}-RGGRLSYSRRRFSVSVGR-OH; N-terminus and C-terminus assumed), in the experiment with resistant K562/ADR cells [1] (FIG. 5 experiment, linked versus not linked with peptide, cell line not given, resistant cells implied, read-out: IC50), the IC50 turned out to be 19 µM. Moreover, in the experiment with resistant K562/ADR cells [1], the “F. Rev (reversion factor)” value is recorded as 5 and the “F. Res (resistance factor)” value is 0.9. For the same compound, the “F. Rev” value in experiment [2] (HL60/R10) came to 1.6.
Turning to `CC[C@H](C)[C@H](NC(=O)CNC(=O)[C@H](CCCNC(=N)N)NC(=O)[C@H](Cc1ccc(O)cc1)NC(=O)[C@H](CO)NC(=O)[C@@H](NC(=O)[C@H](CCCNC(=N)N)NC(=O)[C@H](Cc1ccccc1)NC(=O)[C@H](CO)NC(=O)[C@H](Cc1c[nH]c2ccccc12)NC(=O)[C@H](CCCCN)NC(=O)CCC(=O)N[C@H]1C[C@H](O[C@H]2C[C@](O)(C(=O)CO)Cc3c(O)c4c(c(O)c32)C(=O)c2c(OC)cccc2C4=O)O[C@@H](C)[C@H]1O)C(C)C)C(=O)N[C@@H](CO)C(=O)N[C@@H](Cc1ccc(O)cc1)C(=O)N[C@@H](CCCNC(=N)N)C(=O)N[C@@H](CCCNC(=N)N)C(=O)N[C@@H](CO)C(=O)N[C@@H](CCCNC(=N)N)C(=O)O` [Compound 3, doxo-CO-(CH2)2-CO-KWSFRVSYRGISYRRSR] ({Doxorubicin(3'-N)-Suc}-KWSFRVSYRGISYRRSR-OH; N-terminus and C-terminus assumed), in the experiment with resistant K562/ADR cells [1], the “F. Rev (reversion factor)” value was found to be 43 and the “F. Res (resistance factor)” value is recorded as 0.8.
For `COc1cccc2c1C(=O)c1c(O)c3c(c(O)c1C2=O)C[C@@](O)(C(=O)CO)C[C@@H]3O[C@H]1C[C@H](NC(=O)CCC(=O)N[C@@H](CCCNC(=N)N)C(=O)N[C@@H](CCCNC(=N)N)C(=O)N[C@@H](CC(C)C)C(=O)N[C@@H](CO)C(=O)N[C@@H](Cc2ccc(O)cc2)C(=O)N[C@@H](CO)C(=O)N[C@@H](CCCNC(=N)N)C(=O)N[C@@H](CCCNC(=N)N)C(=O)N[C@@H](CCCNC(=N)N)C(=O)N[C@@H](Cc2ccccc2)C(=O)O)[C@H](O)[C@H](C)O1` [Compound 4, doxo-CO-(CH2)2-CO-RRLSYSRRRF] ({Doxorubicin(3'-N)-Suc}-RRLSYSRRRF-OH; N-terminus and C-terminus assumed), in that order: 2.8 and 1.
As for `CC[C@@H](C)[C@@H](NC(=O)[C@@H](CCCCN)NC(=O)[C@H](NC(=O)[C@@H](CCC(N)=O)NC(=O)[C@@H](CCCNC(=N)N)NC(=O)CCSC1CC(=O)N(CCC(=O)N[C@H]2C[C@H](O[C@H]3C[C@](O)(C(=O)CO)Cc4c(O)c5c(c(O)c43)C(=O)c3c(OC)cccc3C5=O)O[C@@H](C)[C@H]2O)C1=O)[C@H](C)CC)C(=O)N[C@H](Cc1c[nH]c2ccccc12)C(=O)N[C@H](Cc1ccccc1)C(=O)N[C@H](CCC(N)=O)C(=O)N[C@H](CC(N)=O)C(=O)N[C@H](CCCNC(=N)N)C(=O)N[C@H](CCCNC(=N)N)C(=O)N[C@H](CCSC)C(=O)N[C@H](CCCCN)C(=O)N[C@H](Cc1c[nH]c2ccccc12)C(=O)N[C@H](CCCCN)C(=O)N[C@H](CCCCN)C(=O)O` (some centres unmarked) [Compound 5, doxo-SMP-3MP-rqikiwfgnrrmkwkk], the “percentage of positive cells (internalisation)” value in the experiment on resistant K562/ADR cells [3] amounted to 98%. For the same compound, in the experiment with resistant K562/ADR cells [1], the “F. Rev (reversion factor)” value is listed as 35 and the “F. Res (resistance factor)” value was found to be 1.3. Also, the IC50 in the experiment with resistant K562/ADR cells [1] (resistant line K562/ADR, MTT, 50% growth inhibition, read-out: IC50 K562/ADR) was 2 µM.
Regarding `CC[C@H](C)[C@H](NC(=O)[C@H](CCCCN)NC(=O)[C@@H](NC(=O)[C@H](CC(N)=O)NC(=O)[C@H](CCC(=O)O)NC(=O)[C@@H](N)CSC1CC(=O)N(CCC(=O)N[C@H]2C[C@H](O[C@H]3C[C@](O)(C(=O)CO)Cc4c(O)c5c(c(O)c43)C(=O)c3c(OC)cccc3C5=O)O[C@@H](C)[C@H]2O)C1=O)[C@@H](C)CC)C(=O)N[C@@H](Cc1c[nH]c2ccccc12)C(=O)N[C@@H](CC(C)C)C(=O)N[C@@H](CO)C(=O)N[C@@H](CC(C)C)C(=O)N[C@@H](CCCNC(=N)N)C(=O)N[C@@H](CO)C(=O)N[C@@H](Cc1ccc(O)cc1)C(=O)N[C@@H](CC(C)C)C(=O)N[C@@H](CCCCN)C(=O)N[C@@H](CCCNC(=N)N)C(=O)N[C@@H](CCCNC(=N)N)C(=O)O` (some centres unmarked) [Compound 6, doxo-SMP-CENIKIWLSLRSYLKRR] (H-C(X1)ENIKIWLSLRSYLKRR-OH; N-terminus and C-terminus assumed), in the experiment with resistant K562/ADR cells [1], the “F. Rev (reversion factor)” value was determined as 12.8 and the “F. Res (resistance factor)” value was 1.1.
For `COc1cccc2c1C(=O)c1c(O)c3c(c(O)c1C2=O)C[C@@](O)(C(=O)CO)C[C@@H]3O[C@H]1C[C@H](NC(=O)CCC(=O)N[C@@H](CCCNC(=N)N)C(=O)NCC(=O)NCC(=O)N[C@@H](CCCNC(=N)N)C(=O)N[C@@H](CC(C)C)C(=O)N[C@@H](C)C(=O)N[C@@H](Cc2ccc(O)cc2)C(=O)N[C@@H](CC(C)C)C(=O)N[C@@H](CCCNC(=N)N)C(=O)N[C@@H](CCCNC(=N)N)C(=O)N[C@@H](CCCNC(=N)N)C(=O)N[C@@H](Cc2c[nH]c3ccccc23)C(=O)N[C@@H](C)C(=O)N[C@H](C(=O)N[C@@H](CC(C)C)C(=O)N[C@H](C(=O)NCC(=O)N[C@@H](CCCNC(=N)N)C(=O)O)C(C)C)C(C)C)[C@H](O)[C@H](C)O1` [Compound 7, doxo-CO-(CH2)2-CO-RGGRLAYLRRRWAVLVGR] ({Doxorubicin(3'-N)-Suc}-RGGRLAYLRRRWAVLVGR-OH; N-terminus and C-terminus assumed), in that order: greater than 26 and 0.85.
With `COc1cccc2c1C(=O)c1c(O)c3c(c(O)c1C2=O)C[C@@](O)(C(=O)CO)C[C@@H]3O[C@H]1C[C@H](N)[C@H](O)[C@H](C)O1` [Free Doxo, doxorubicin, reference compound], in the experiment with resistant K562/ADR cells [3] (listed as free doxorubicin), the “percentage of positive cells (internalisation)” value was 5.86% and 5.68%. Besides, the “survival of the cells” value was determined as 15% in experiment [4] and 100% in the experiment on resistant K562/ADR cells [1] (K562/ADR resistant cells, 8 μM, 24 hours incubation, MTT). Moreover, the IC50 came out at 70 µM in the experiment on resistant K562/ADR cells [1] (resistant line K562/ADR, MTT, 50% growth inhibition, listed as free doxorubicin, read-out: IC50 K562/ADR) and 40 µM in experiment [2] (Homo sapiens, HL-60, HL60/R10 doxorubicin-resistant cells, MTT).

For the origin of these results see US7527792B1, “Pharmaceutical composition comprising an anti-cancer and at least a peptide” (Synt : EM, priority 1998, dated 2009).
